Measurements from patent US20170107207A1, “AMINOPYRAZOLONE DERIVATIVE” (DAIICHI SANKYO COMPANY, LIMITED, priority 2014, published 2017).

Columns and labels:
[1] = biological target: T1, TIP48/TIP49 complex (Homo sapiens, UniProt Q9Y230+Q9Y265); assay: ATPase assay of TIP48/TIP49 complex (ADP-Glo); assay type: biochemical; conditions: concentration at which the ATPase activity was inhibited by 50%
T1 construct: made in house; host or cells: E. coli
How it was run: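 Compound was tested over 10 four-fold concentrations, 200 μM down to 0.0007 μM at 2% DMSO, against E. coli-derived human rTIP48/rTIP49 for 1.5 h at room temperature, pH 7.5 with ATP. ATP hydrolysis was read as ADP-Glo luminescence, normalised to complex-only and no-complex wells, then fitted to dose-response curves.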

[2] = system: human lymphoma cell line RAMOS cells; assay: Cell growth inhibition test using RAMOS cell, MTT assay; assay type: cell-based; conditions: 50% growth inhibition concentration
Description: A cell growth inhibition test was carried out by treating human lymphoma cell line RAMOS cells with a test compound for a given period and then counting the number of viable cells by MTT assay or CellTiter-Glo Luminescent Cell Viability Assay (manufactured by Promega Corp.; hereinafter, referred to as ATP assay).
RAMOS cells were suspended in a medium (RPMI1640 medium containing 10% fetal bovine serum). The cell suspension was inoculated at 5000 cells/150 μL/well to a 96-well multiwell plate. The test compound was dissolved in DMSO, and this solution was diluted with medium to prepare a sample solution (DMSO concentration: 1% or lower). Subsequently, test compound-free medium or the sample solution was added thereto at 50 μL/well. The MTT assay was carried out at the day of addition of the sample solution or the DMSO dilution to the cells and after culture at 37° C. for 3 days under 5% CO2 of the cells supplemented with the sample solution or the medium. The MTT assay was carried out as follows.
A 5 mg/mL solution of MTT (3-(4,5-dimethylthiazol-2-yl)-2,5-diphenyltetrazolium bromide, Sigma-Aldrich Corp., M-2128) was prepared using a phosphate buffered solution (Dulbecco's phosphate-buffered saline). This MTT solution was added at 20 μL/well to the plate. Then, the plate was incubated at 37° C. for 4 hours under 5% CO2. The plate was centrifuged at 1200 rpm for 5 minutes, and then, the culture supernatant was removed by suction using a dispenser. DMSO was added thereto at 150 μL/well to dissolve formed formazan. […] from each well was rendered uniform by the stirring of the plate using a plate mixer. The absorbance of each well was measured using a plate reader under conditions involving OD of 540 nm and reference of 660 nm.
The number of viable cells and absorbance (hereinafter, referred to as an OD value) have been confirmed to correlate with each other. Therefore, the rate of cell growth was calculated according to the following expression: Rate of cell growth (T/C %) of a test compound-supplemented well=100×[(B−C)/(A−C)] wherein A represents the OD value (final culture date) of a test compound-free well; B represents the OD value (final culture date) of a test compound-containing well; and C represents the OD value (day of cell inoculation) of a well at the start of contact of the cells with the test compound.
T/C % at each concentration of the test compound was determined. The concentration at which the test compound offered 50% growth rate was calculated as a 50% growth inhibition concentration (GI50) value from the growth rates at two points interpolating 50% and the concentrations, and is shown in Table 56.

T1 sequence (Q9Y230 whole entry): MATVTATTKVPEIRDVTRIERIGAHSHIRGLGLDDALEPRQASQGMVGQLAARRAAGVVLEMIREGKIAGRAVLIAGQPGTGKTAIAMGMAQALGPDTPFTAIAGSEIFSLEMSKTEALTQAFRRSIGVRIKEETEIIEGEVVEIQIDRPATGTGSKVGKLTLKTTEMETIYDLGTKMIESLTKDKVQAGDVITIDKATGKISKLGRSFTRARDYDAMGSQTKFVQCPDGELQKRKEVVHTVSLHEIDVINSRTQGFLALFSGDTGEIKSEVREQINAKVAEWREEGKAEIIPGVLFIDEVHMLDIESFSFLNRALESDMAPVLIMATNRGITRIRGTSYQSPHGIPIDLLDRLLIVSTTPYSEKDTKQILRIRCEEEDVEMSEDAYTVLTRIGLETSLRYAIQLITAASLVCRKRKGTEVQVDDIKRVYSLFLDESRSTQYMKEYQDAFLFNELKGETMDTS
T1 sequence (Q9Y265 whole entry): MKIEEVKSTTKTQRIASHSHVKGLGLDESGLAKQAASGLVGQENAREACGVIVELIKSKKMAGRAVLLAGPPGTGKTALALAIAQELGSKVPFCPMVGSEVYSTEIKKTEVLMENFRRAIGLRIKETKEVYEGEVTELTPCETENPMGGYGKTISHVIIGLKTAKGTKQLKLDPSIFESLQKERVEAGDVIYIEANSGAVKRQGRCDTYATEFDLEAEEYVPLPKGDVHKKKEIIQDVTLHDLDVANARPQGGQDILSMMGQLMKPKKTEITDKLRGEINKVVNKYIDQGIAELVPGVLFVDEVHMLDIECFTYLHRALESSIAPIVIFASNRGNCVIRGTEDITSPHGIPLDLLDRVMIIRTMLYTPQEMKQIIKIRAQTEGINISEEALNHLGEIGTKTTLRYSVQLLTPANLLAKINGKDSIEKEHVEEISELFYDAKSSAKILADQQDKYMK

SMILES	IC50 [1] [nM]	GI50 [2] [nM]
Cc1cc2cc(Cl)cc(C(=O)NCC(C)(C)CC(=O)Nc3c(C)n(C)n(-c4ccccn4)c3=O)c2o1 [Example 151, 5-Chloro-N-(4-{[1,5-dimethyl-3-oxo-2-(2-pyridyl)-2,3-dihydro-1H-pyrazol-4-yl]amino}-2,2-dimethyl-4-oxobutyl)-2-methylbenzofuran-7-carboxamide]	40	130
COCc1c(NC(=O)CC(C)(C)CNC(=O)c2cc(Cl)cc3c2OC(C)(C)C3)c(=O)n(-c2ccccc2)n1C [Example 121, 5-Chloro-N-(4-{[5-(methoxymethyl)-1-methyl-3-oxo-2-phenyl-2,3-dihydro-1H-pyrazol-4-yl]amino}-2,2-dimethyl-4-oxobutyl)-2,2-dimethyl-3H-benzofuran-7-carboxamide]	61	140
COc1ccc(Cl)cc1NC(=O)CC1(CC(=O)Nc2c(C)n(C)n(-c3ccccc3)c2=O)OCCO1 [Example 98, N-(5-Chloro-2-methoxyphenyl)-2-(2-{2-[(1,5-dimethyl-3-oxo-2-phenyl-2,3-dihydro-1H-pyrazol-4-yl)amino]-2-oxoethyl}-1,3-dioxolan-2-yl)acetamide]	2200	9600
CCOc1ccc(Cl)cc1C(=O)NCC(C)(C)CC(=O)Nc1c(C)n(C(C)C)n(-c2ccccn2)c1=O [Example 156, 5-Chloro-2-ethoxy-N-(4-{[1-isopropyl-5-methyl-3-oxo-2-(2-pyridyl)pyrazol-4-yl]amino}-2,2-dimethyl-4-oxobutyl)benzamide]	48	100
Cc1c(NC(=O)CC(C)(C)CNC(=O)c2cc(Cl)cc3c2OCCC3)c(=O)n(-c2ccccc2)n1C [Example 106, 6-Chloro-N-{4-[(1,5-dimethyl-3-oxo-2-phenyl-2,3-dihydro-1H-pyrazol-4-yl)amino]-2,2-dimethyl-4-oxobutyl}chromane-8-carboxamide]	35	100
CCOc1ncc(Cl)cc1NC(=O)CC(C)(C)CC(=O)Nc1c(CCN(C)C)n(C)n(-c2ccccc2)c1=O [Example 25, N-(5-Chloro-2-ethoxy-3-pyridyl)-N′-{5-[2-(dimethylamino)ethyl]-1-methyl-3-oxo-2-phenyl-2,3-dihydro-1H-pyrazol-4-yl}-3,3-dimethylpentanediamide]	140	490
COc1ccc(Cl)cc1NC(=O)CC(C)(C)CC(=O)Nc1c(C)n(C)n(C2CCCCC2)c1=O [Example 160, N-(5-Chloro-2-methoxyphenyl)-N′-(1-cyclohexyl-2,3-dimethyl-5-oxopyrazol-4-yl)-3,3-dimethylpentanediamide]	200	990
CCOc1ccc(Cl)cc1C(=O)NCC(C)(C)CC(=O)Nc1c(C)n(CC)n(-c2ccccc2)c1=O [Example 137, 5-Chloro-2-ethoxy-N-{4-[(1-ethyl-5-methyl-3-oxo-2-phenyl-2,3-dihydro-1H-pyrazol-4-yl)amino]-2,2-dimethyl-4-oxobutyl}benzamide]	38	48
CCOc1ncc(Cl)cc1C(=O)NCC(C)(C)CC(=O)Nc1c(C)n(C)n(-c2ccccn2)c1=O [Example 150, 5-Chloro-N-(4-{[1,5-dimethyl-3-oxo-2-(2-pyridyl)-2,3-dihydro-1H-pyrazol-4-yl]amino}-2,2-dimethyl-4-oxobutyl)-2-ethoxypyridine-3-carboxamide]	110	350
CNCc1c(NC(=O)CC(C)(C)CNC(=O)c2cc(Cl)ccc2OC)c(=O)n(-c2ccccc2)n1C [Example 4, 5-Chloro-N-(2,2-dimethyl-4-{[1-methyl-5-(methylaminomethyl)-3-oxo-2-phenyl-2,3-dihydro-1H-pyrazol-4-yl]amino}-4-oxobutyl)-2-methoxybenzamide]	48	170
COc1cc(F)c(Cl)cc1C(=O)NCC(C)(C)CC(=O)Nc1c(CN(C)C)n(C)n(-c2ccccc2)c1=O [Example 6, 5-Chloro-N-[4-({5-[(dimethylamino)methyl]-1-methyl-3-oxo-2-phenyl-2,3-dihydro-1H-pyrazol-4-yl}amino)-2,2-dimethyl-4-oxobutyl]-4-fluoro-2-methoxybenzamide]	150	170
CCOc1ccc(Cl)cc1C(=O)NCC(C)(C)CC(=O)Nc1c(CCNC(=O)OC(C)(C)C)n(C)n(-c2ccccc2)c1=O [Example 10, tert-Butyl N-{2-[4({4-[(5-chloro-2-ethoxybenzoyl)amino]-3,3-dimethylbutanoyl}amino)-2-methyl-5-oxo-1-phenyl-2,3-dihydro-1H-pyrazol-3-yl]ethyl}carbamate]	14	45
Cc1c(NC(=O)CC(C)(C)CNC(=O)c2cc(Cl)cc3c2OC(C)CN3C)c(=O)n(-c2ccccc2)n1C (centres unmarked) [Example 110, 6-Chloro-N-{4-[(1,5-dimethyl-3-oxo-2-phenyl-2,3-dihydro-1H-pyrazol-4-yl)amino]-2,2-dimethyl-4-oxobutyl}-2,4-dimethyl-2,3-dihydro-1,4-benzoxazine-8-carboxamide]	33	120
COc1ccc(Cl)cc1C(=O)NCC(C)(C)CC(=O)Nc1c(CCN)n(C)n(-c2ccccc2)c1=O [Example 21]	110	920
COc1ccc(Cl)cc1C(=O)NCC(C)(C)CC(=O)Nc1c(CCNC(=O)OC(C)(C)C)n(C)n(-c2ccccc2)c1=O [Example 20, tert-Butyl N-{2-[4-({4-[(5-chloro-2-methoxybenzoyl)amino]-3,3-dimethylbutanoyl}amino)-2-methyl-5-oxo-1-phenyl-2,3-dihyro-1H-pyrazol-3-yl]ethyl}carbamate]	65	190
Cc1c(NC(=O)CC(C)(C)CNC(=O)c2cc(Cl)ccc2OC2COC2)c(=O)n(-c2ccccc2)n1C [Example 108, 5-Chloro-N-{4-[(1,5-dimethyl-3-oxo-2-phenyl-2,3-dihydro-1H-pyrazol-4-yl)amino]-2,2-dimethyl-4-oxobutyl}-2-(oxetan-3-yloxy)benzamide]	190	740
Cc1c(NC(=O)CC(C)(C)CNC(=O)c2cc(Cl)cc3c2OC(C)C3)c(=O)n(-c2ccccc2)n1C (centres unmarked) [Example 105, 5-Chloro-N-{4-[(1,5-dimethyl-3-oxo-2-phenyl-2,3-dihydro-1H-pyrazol-4-yl)amino]-2,2-dimethyl-4-oxobutyl}-2-methyl-2,3-dihydrobenzofuran-7-carboxamide]	26	74
COc1ccc(Cl)cc1C(=O)NCC(C)(C)CC(=O)Nc1c(COC2CN(C)C2)n(C)n(-c2ccccc2)c1=O [Example 134]	220	800
Cc1c(NC(=O)CC(C)(C)CC(=O)Nc2cc(Cl)ccc2OC(C)C)c(=O)n(-c2cccc(C(F)(F)F)c2)n1C [Example 147, N-(5-Chloro-2-isopropoxy-phenyl)-N′-[1,5-dimethyl-3-oxo-2-[3-(trifluoromethyl)phenyl]pyrazol-4-yl]-3,3-dimethylpentanediamide]	81	40
CCCn1c(C)c(NC(=O)CC(C)(C)CC(=O)Nc2cc(Cl)c(F)cc2OC)c(=O)n1-c1ccccc1 [Example 138, N-(5-Chloro-4-fluoro-2-methoxyphenyl)-3,3-dimethyl-N′-(3-methyl-5-oxo-1-phenyl-2-propylpyrazol-4-yl)pentanediamide]	180	330
CCOc1cc(F)c(Cl)cc1NC(=O)CC(C)(C)CC(=O)Nc1c(CCN(C)C)n(C)n(-c2ccccc2)c1=O [Example 24, N-(5-Chloro-2-ethoxy-4-fluorophenyl)-N′-{5-[2-(dimethylamino)ethyl]-1-methyl-3-oxo-2-phenyl-2,3-dihydro-1H-pyrazol-4-yl}-3,3-dimethylpentanediamide]	380	480
COCc1c(NC(=O)CC(C)(C)CNC(=O)c2cc(Cl)cc3cc(C)oc23)c(=O)n(-c2ccccc2)n1C [Example 120, 5-Chloro-N-(4-{[5-(methoxymethyl)-1-methyl-3-oxo-2-phenyl-2,3-dihydro-1H-pyrazol-4-yl]amino}-2,2-dimethyl-4-oxobutyl)-2-methylbenzofuran-7-carboxamide]	24	51
